Reference: patent publication US6514946B1, “Macrolide antibiotics and treatment and prophylaxis of pasteurellosis using the same” (Zaidan Hojin Biseibutsu Kagaku Kenkyu Kai, priority 1999, dated 2003)
In brackets after ≈: the same amount, converted by molar mass.

Columns and labels:
[1] = test system: Past. multocida BOPO305 M-17; test: Minimum inhibition concentration (MIC), agar double dilution method; assay type: cell-based, Pasteurella multocida; details: Pasteurella multocida, BOPO305M17; Past. multocida BOPO305 M-17, strain from a sheep; BHI agar; read-out: MIC
How it was run: (§1)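 Method: Japan Society of Chemotherapy standard, agar double dilution. Medium: Mueller Hinton agar for the listed strains. Exception: Pasteurella on BHI agar.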

[2] = test system: Past. multocida BSPO302 No. 6; test: as above; assay type: cell-based, Pasteurella multocida; details: Pasteurella multocida, BSPO302NO.6; Past. multocida BSPO302 No. 6, strain from a pig; BHI agar; read-out: MIC
How it was run: as §1

[3] = test system: ICR mice; test: Toxicity test, intravenous or subcutaneous injection; assay type: in vivo; details: intravenous injection
[4] = test system: Ureaplasma; test: Bacteria separation test from nasal cavity swab; assay type: in vivo, cattle
[5] = test system: P. haemolytica; test: Bacteria separation test from nasal cavity swab; assay type: in vivo, cattle
[6] = before administration (baseline)

For `CC[C@H]1OC(=O)C[C@@H](O)[C@H](C)[C@@H](O[C@@H]2O[C@H](C)C(O)C(N(C)C)C2O)[C@@H](CCN2CC(C)CC(C)C2)C[C@@H](C)C(=O)/C=C/C(C)=C/[C@@H]1CO[C@@H]1OC(C)C(O)[C@@H](OC)C1OC` (stereo partly drawn) [Tilmicosin, tilmicosin], the MIC [1] was 6.25 µg/mL (≈ 7.19 µM), the MIC [2] was 6.25 µg/mL (≈ 7.19 µM) and the Dissection finding ([3]; 0.5 mg/mouse) was “immediate death”. For the same molecule, the Dissection finding ([3]; 1.0 mg/mouse) was “immediate death”, the Dissection finding ([3]; 2.0 mg/mouse) was “immediate death” and the “Separation rate (%) at completion (number of animal)” value ([4]; at completion) was 60 (3/5) % (number of animal). For the same molecule, the “Separation rate (%) before administration (number of animal)” value [4, 6] was 100 (5/5) % (number of animal), the “Separation rate (%) at completion (number of animal)” value ([5]; at completion) was 20 (1/5) % (number of animal) and the “Separation rate (%) before administration (number of animal)” value [5, 6] was 20 (1/5) % (number of animal).
